Source: patent US9775881B2, “Methods of treating mesothelioma by administration of compounds comprising FGFR1 ECD” (Five Prime Therapeutics, Inc., priority 2013, dated 2017)

Columns and labels:
Format in all cases: in vivo, mouse
HLF xenograft model = test: HLF xenograft model, FGFR1-ECD.339-Fc alone and with sorafenib; settings: 24 days, FGFR1-ECD.339-Fc 15 mg/kg IP twice per week (p=0.0175), sorafenib 20 mg/kg oral five times per week (p=0.0020)
Procedure: Six week old female CB17 SCID mice were purchased from Charles River Laboratories (Wilmington, Mass.) and were acclimated for 1 week before the start of the study. […] The cells were cultured for three passages in complete growth medium to expand for implantation. HLF cells were cultured in Dulbecco's Modified Eagle Medium (DMEM) supplemented with 10% Fetal Bovine Serum (FBS) and Antibiotic-Antimycotic solution. Cells were grown at 37° C. in a humidified atmosphere with 5% CO2.
The cells were implanted subcutaneously over the right flank of the mice at 2.5×10^6 cells/100 μl/mouse. Mice were monitored twice weekly following cell implantation for tumor growth. […]
FGFR1-ECD.339-Fc or albumin as a negative control, was dosed at 15 mg/kg via intraperitoneal (IP) injection twice per week. […] Upon initiation of therapy, tumor sizes were measured in each mouse twice weekly. The length and width of each tumor was measured using calipers and the tumor size calculated according to the formula above. […]
Comparisons of tumor volume as a consequence of treatment with FGFR1-ECD.339-Fc and/or sorafenib were determined to be statistically significant if P<0.05. P-values were calculated using unpaired, two-tailed t-test analyses of the calculated tumor volumes on day 24 following initiation of treatment.

SK-Hep-1 xenograft model [1] = test: SK-Hep-1 xenograft model, FGFR1-ECD.339-Fc alone and with sorafenib; settings: 61 days, FGFR1-ECD.339-Fc 15 mg/kg IP twice per week (p=0.0036), sorafenib 20 mg/kg oral five times per week (p<0.0001)
Procedure: (§1) The cells were implanted subcutaneously over the right flank of the mice at 5×10^6 cells/100 μl/mouse.

HepG2 xenograft model [2] = test: HepG2 xenograft model, FGFR1-ECD.339-Fc alone and with sorafenib
Procedure: FGFR1-ECD.339-Fc as a single agent, and in combination with sorafenib, was also tested in a HepG2 xenograft model.

[3] = system: NCI-H226 (mesothelioma) xenograft; test: Blood vessel density by MECA-32 IHC in NCI-H226 xenograft tumors; settings: NCI-H226 tumors harvested day 30; 1.024, 5.12 or 25.6 mg/kg t.i.w. for 29 days
Procedure: Endothelial cell immunohistochemical (IHC) staining using a rat anti-mouse pan-endothelial cell antigen antibody (MECA-32; BD Biosciences, Franklin Lakes, N.J.) was performed on tumors from a NCI-H226 (mesothelioma) xenograft study. Tumor-bearing mice were treated with either vehicle (0.9% saline) or increasing doses of FGFR1-ECD.339-Fc (1.024, 5.12, or 25.6 mg/kg) three times a week (t.i.w.) for 29 days, as described above. Tumors were harvested on day 30. Quantification of MECA-32 IHC staining was analyzed by measuring the number of blood vessels/tissue area.

ACHN xenograft model = test: ACHN xenograft model, FGFR1-ECD.339-Fc alone and with pazopanib
Procedure: as §1

HepG2 xenograft model [4] = test: HepG2 xenograft model, FGFR1-ECD.339-Fc single agent; settings: 15 mg/kg IP twice per week
Procedure: (§2) Six week old female CB17 SCID mice were purchased from Charles River Laboratories (Wilmington, Mass.) and were acclimated for 1 week before the start of the study. Human hepatocellular carcinoma (HCC) cell lines HepG2 and Hep3B were purchased from ATCC (Manassas, Va.) and Huh7 was purchased from JCRB (Japanese Collection of Research Bioresources). The cells were cultured for three passages in complete growth medium to expand for implantation. HepG2 and Hep3B cells were cultured in Dulbecco's Modified Eagle Medium (DMEM) supplemented with 10% Fetal Bovine Serum (FBS), 2 mM L-Glutamine, and Penicillin-Streptomycin antibiotic solution. […]
(§3) When the cultured cells reached 85-90% confluence, cells were harvested and resuspended in cold Ca^2+ and Mg^2+ free phosphate buffered saline (PBS) containing 50% Matrigel. […] Mice were monitored twice weekly following cell implantation for tumor growth.
(§4) FGFR1-ECD.339-Fc (FP-1039) or albumin as a negative control was dosed at 15 mg/kg via intraperitoneal injection twice per week. […] Upon initiation of therapy, tumor sizes were measured in each mouse twice weekly. The length and width of each tumor was measured using calipers and the tumor size calculated according to the formula Tumor size (mm^3)=[…]. […]
(§5) Comparisons of tumor volume as a consequence of treatment with FP-1039 were determined to be statistically significant if P<0.05. […]

NCI-H226 xenograft = test: NCI-H226 mesothelioma tumor xenograft model, dose response; settings: SCID mice, day 29
Procedure: Seven week old female SCID mice (Taconic, Hudson, N.Y.) were implanted subcutaneously with NCI-H226 cells (ATCC, Manassas, Va.) at 5×10^6 cells/mouse and tumor-bearing mice were randomized into 4 groups (n=8/group) when tumors reached ˜176-277 mm^3 in size. Mice were treated with FGFR1-ECD.339-Fc at three different concentrations (1.024, 5.12 or 25.6 mg/kg) three times a week (t.i.w.) for 29 days. Tumor size and body weights were measured twice a week.

MSTO-211H xenograft = test: MSTO-211H mesothelioma tumor xenograft model, dose response; settings: SCID mice, day 29
Procedure: Five to six week old female SCID mice were implanted subcutaneously with MSTO-211H cells (ATCC, Manassas, Va.) at 5×10^6 cells/mouse and tumor-bearing mice were randomized into 3 groups (n=10/group) when tumors reached ˜150-225 mm^3 in size. Mice were treated with FGFR1-ECD.339-Fc at two different concentrations (5.12 or 25.6 mg/kg) three times a week (t.i.w.) for 29 days. Tumor size and body weights were measured twice a week.

786-0 xenograft model = test: 786-0 xenograft model, FGFR1-ECD.339-Fc alone and with pazopanib; settings: FGFR1-ECD.339-Fc 15 mg/kg IP twice per week, pazopanib 100 mg/kg oral daily
Procedure: as §1

Hep3B xenograft model = test: Hep3B xenograft model, FGFR1-ECD.339-Fc single agent; settings: 15 mg/kg IP twice per week
Procedure: as §2, §3, §4, §5

Caki-2 xenograft model = test: Caki-2 xenograft model, FGFR1-ECD.339-Fc alone and with pazopanib; settings: FGFR1-ECD.339-Fc 15 mg/kg IP twice per week, pazopanib 100 mg/kg oral daily
Procedure: as §1

A498 xenograft model = test: A498 xenograft model, FGFR1-ECD.339-Fc alone and with pazopanib; settings: FGFR1-ECD.339-Fc 15 mg/kg IP twice per week, pazopanib 100 mg/kg oral daily
Procedure: as §1

Huh7 xenograft model = test: Huh7 xenograft model, FGFR1-ECD.339-Fc single agent; settings: 15 mg/kg IP twice per week
Procedure: as §2, §3, §4, §5

SK-Hep-1 xenograft model [5] = test: SK-Hep-1 xenograft model, FGFR1-ECD.339-Fc alone and with pazopanib; settings: 15 mg/kg IP twice per week, p=0.0076
Procedure: as §1

Row | Compound | response of xenograft model to single therapy (tumor volume) (HLF xenograft model) | response of xenograft model to single therapy (tumor volume) (SK-Hep-1 xenograft model [1]) | single agent effect on tumor growth (HepG2 xenograft model [2]) | blood vessel density (MECA-32 IHC), inner region [3] | blood vessel density (MECA-32 IHC), outer region [3] | blood vessel density (MECA-32 IHC), outer+inner region (whole tumor mass) [3] | tumor growth inhibition (ACHN xenograft model; CB17 SCID mice, 15 mg/kg IP twice per week, day 63, p<0.0001) [%] | response of xenograft model to single therapy (tumor volume) (ACHN xenograft model; FGFR1-ECD.339-Fc 15 mg/kg IP twice per week) | single agent efficacy (tumor volume) (HepG2 xenograft model [4]) | tumor growth inhibition (TGI) (NCI-H226 xenograft; 1.024 mg/kg three times a week) [%] | tumor growth inhibition (TGI) (NCI-H226 xenograft; 5.12 mg/kg three times a week) [%] | tumor growth inhibition (TGI) (NCI-H226 xenograft; 25.6 mg/kg three times a week) [%] | tumor growth inhibition (TGI) (MSTO-211H xenograft; 5.12 mg/kg three times a week) [%] | tumor growth inhibition (TGI) (MSTO-211H xenograft; 25.6 mg/kg three times a week) [%] | response of xenograft model to single therapy (tumor volume) (786-0 xenograft model) | single agent efficacy (tumor volume) (Hep3B xenograft model) | response of xenograft model to single therapy (tumor volume) (Caki-2 xenograft model) | response of xenograft model to single therapy (tumor volume) (A498 xenograft model) | single agent efficacy (tumor volume) (Huh7 xenograft model) | response of xenograft model to single therapy (tumor volume) (SK-Hep-1 xenograft model [5])
1 | CNC(=O)c1cc(Oc2ccc(NC(=O)Nc3ccc(Cl)c(C(F)(F)F)c3)cc2)ccn1 [sorafenib, reference compound] | responded | responded | inhibits tumor growth |  |  |  |  |  |  |  |  |  |  |  |  |  |  |  |  | 
2 | FGFR1-ECD.339-Fc: human FGFR1 extracellular domain ending at amino acid 339 fused to Fc; SEQ ID NO: 6 (mature form) or SEQ ID NO: 5 (with signal peptide) | responded | responded | not effective as a single agent | no significant differences | dose-dependent and a statistically-significant reduction | dose-dependent and a statistically-significant reduction | 51 | responded | no single agent efficacy | 16.2 | 56.8 | 77.8 | 20.3 | 50.1 | did not respond | no single agent efficacy | little response | little response | no single agent efficacy | responded
